The target of one experiment is T1, 5-HT2C (Homo sapiens, UniProt P28335).
T1 sequence (P28335 33-458): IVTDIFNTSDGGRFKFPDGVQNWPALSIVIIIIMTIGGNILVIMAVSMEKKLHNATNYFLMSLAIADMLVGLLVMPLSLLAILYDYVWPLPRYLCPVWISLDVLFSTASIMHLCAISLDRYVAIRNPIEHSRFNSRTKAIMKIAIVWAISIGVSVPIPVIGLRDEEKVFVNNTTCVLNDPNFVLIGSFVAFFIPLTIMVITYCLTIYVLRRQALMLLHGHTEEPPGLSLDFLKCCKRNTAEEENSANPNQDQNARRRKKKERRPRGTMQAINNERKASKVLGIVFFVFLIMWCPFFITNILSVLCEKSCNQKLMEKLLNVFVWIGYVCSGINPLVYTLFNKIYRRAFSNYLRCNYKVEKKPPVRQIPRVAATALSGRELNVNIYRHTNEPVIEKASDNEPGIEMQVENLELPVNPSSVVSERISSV
The experiment can be described thus: NIMH PDSP radioligand competition binding, 5-HT2C. A general note: In a radioligand displacement assay an active substance lowers the binding of a labelled ligand.

Experiment [1] deals with dopamine transporter (DAT) (Homo sapiens, UniProt Q01959). Kind of experiment: NIMH PDSP radioligand competition binding, DAT.
The next experiment deals with T2, 5-HT1A (Homo sapiens, UniProt P08908).
T2 sequence (P08908 1-422): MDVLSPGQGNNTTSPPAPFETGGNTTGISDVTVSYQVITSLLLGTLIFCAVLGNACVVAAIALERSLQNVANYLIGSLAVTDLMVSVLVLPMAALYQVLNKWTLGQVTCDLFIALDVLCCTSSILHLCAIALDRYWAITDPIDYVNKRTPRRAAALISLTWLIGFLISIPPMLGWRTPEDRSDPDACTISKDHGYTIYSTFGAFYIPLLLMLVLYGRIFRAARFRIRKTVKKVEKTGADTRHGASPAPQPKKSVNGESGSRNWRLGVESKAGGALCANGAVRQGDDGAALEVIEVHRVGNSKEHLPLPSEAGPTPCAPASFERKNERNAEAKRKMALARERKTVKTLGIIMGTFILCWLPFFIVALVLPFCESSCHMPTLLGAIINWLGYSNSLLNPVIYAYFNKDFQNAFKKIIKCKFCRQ
Kind of experiment: NIMH PDSP radioligand competition binding, 5-HT1A.

Another experiment addresses D5 (Homo sapiens, UniProt P21918). Kind of experiment: NIMH PDSP radioligand competition binding, D5.
The mark [2] stands for this setting: Binding Affinity (Ki, nM), [3H]SCH23390, cloned human receptor.

Each structure is given as a SMILES string.

dopamine transporter (DAT), sequence (Q01959 whole entry): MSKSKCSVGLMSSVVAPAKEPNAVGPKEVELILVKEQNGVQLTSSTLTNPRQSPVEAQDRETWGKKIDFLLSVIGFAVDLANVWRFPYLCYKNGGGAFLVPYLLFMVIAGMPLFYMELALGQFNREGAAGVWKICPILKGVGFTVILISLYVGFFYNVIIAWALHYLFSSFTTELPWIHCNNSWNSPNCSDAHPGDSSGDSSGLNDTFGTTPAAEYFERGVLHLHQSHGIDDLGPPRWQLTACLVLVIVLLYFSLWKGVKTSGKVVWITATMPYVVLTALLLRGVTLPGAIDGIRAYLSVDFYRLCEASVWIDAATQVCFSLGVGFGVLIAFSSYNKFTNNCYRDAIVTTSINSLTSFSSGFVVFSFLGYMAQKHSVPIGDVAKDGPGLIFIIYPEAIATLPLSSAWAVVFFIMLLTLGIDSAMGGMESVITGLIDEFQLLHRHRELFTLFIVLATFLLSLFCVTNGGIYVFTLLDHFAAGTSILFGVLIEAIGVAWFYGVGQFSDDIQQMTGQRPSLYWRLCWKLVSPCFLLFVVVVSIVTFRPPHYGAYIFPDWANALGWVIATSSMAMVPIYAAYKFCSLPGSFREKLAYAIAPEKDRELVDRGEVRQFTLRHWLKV
D5, sequence (P21918 whole entry): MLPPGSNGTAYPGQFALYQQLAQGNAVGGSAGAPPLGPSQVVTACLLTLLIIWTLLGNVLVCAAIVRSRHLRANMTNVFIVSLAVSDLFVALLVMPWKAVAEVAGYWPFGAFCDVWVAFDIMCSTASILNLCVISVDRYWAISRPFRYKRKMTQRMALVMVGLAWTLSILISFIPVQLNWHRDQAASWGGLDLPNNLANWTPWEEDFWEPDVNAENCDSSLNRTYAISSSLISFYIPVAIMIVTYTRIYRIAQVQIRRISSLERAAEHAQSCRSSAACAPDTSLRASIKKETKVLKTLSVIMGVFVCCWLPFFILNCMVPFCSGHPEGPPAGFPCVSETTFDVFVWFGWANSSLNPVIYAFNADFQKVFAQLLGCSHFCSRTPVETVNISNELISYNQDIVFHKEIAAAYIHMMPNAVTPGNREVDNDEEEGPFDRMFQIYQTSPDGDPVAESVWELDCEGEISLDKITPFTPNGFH

Usually Ki stands for a dissociation constant, usually derived from enzyme kinetics or from competition with a known ligand. As for `C=CCN(CC=C)CCc1c(-c2ccccc2)[nH]c2ccccc12` [2-Ph-DALT, 2-phenyl-N,N-diallyltryptamine], the inhibition constant Ki on 5-HT2C is 0.278 µM; in experiment [1] it was 0.746 µM; on 5-HT1A, 0.402 µM; on D5 (setting [2]), 2000 nM; at D5 (Ki value, bound stated), < 10000 nM.
For the compound `C=CCN(CC=C)CCc1c[nH]c2cccc(OC(C)=O)c12` [4-AcO-DALT, 4-acetoxy-N,N-diallyltryptamine], the Ki on 5-HT2C was 1.52 µM; in experiment [1], > 10 µM; at 5-HT1A, 0.383 µM; on D5 (setting [2]), > 10000 nM.
For `C=CCN(CC=C)CCc1c[nH]c2cccc(O)c12` [4-HO-DALT, 4-hydroxy-N,N-diallyltryptamine], in that order: 2.11 µM, > 10 µM, 0.319 µM and > 10000 nM.
`C=CCN(CC=C)CCc1c(C)[nH]c2ccc(F)cc12` [5-F-2-Me-DALT, 5-fluoro-2-methyl-N,N-diallyltryptamine]: the inhibition constant (Ki) was 0.541 µM on 5-HT2C, 2.21 µM in experiment [1], 0.318 µM at 5-HT1A and > 10000 nM on D5 (setting [2]).
For `C=CCN(CC=C)CCc1c(C)[nH]c2ccc(OC)cc12` [5-MeO-2-Me-DALT, 5-methoxy-2-methyl-N,N-diallyltryptamine], in that order: > 10 µM, 2.41 µM, 0.267 µM and > 10000 nM.
Taken in the same sequence, the figures for `C=CCN(CC=C)CCc1c[nH]c2c(CC)cccc12` [7-Et-DALT, 7-ethyl-N,N-diallyltryptamine] were 0.443 µM, 1.73 µM, 1.01 µM and > 10000 nM.

Values taken from publication PMC6230509 (Neuropharmacology, 2018).
